{"source": "patent US7049120B2", "about": "“Regulation of human mrp5-like protein” (Bayer HealthCare AG, priority 2001, dated 2006)", "origin": "cited, not measured here", "key": {"MRP5 [1]": {"molecular_target": "T1, MRP5 (Homo sapiens, UniProt O15440)", "T1 sequence (O15440 whole entry)": "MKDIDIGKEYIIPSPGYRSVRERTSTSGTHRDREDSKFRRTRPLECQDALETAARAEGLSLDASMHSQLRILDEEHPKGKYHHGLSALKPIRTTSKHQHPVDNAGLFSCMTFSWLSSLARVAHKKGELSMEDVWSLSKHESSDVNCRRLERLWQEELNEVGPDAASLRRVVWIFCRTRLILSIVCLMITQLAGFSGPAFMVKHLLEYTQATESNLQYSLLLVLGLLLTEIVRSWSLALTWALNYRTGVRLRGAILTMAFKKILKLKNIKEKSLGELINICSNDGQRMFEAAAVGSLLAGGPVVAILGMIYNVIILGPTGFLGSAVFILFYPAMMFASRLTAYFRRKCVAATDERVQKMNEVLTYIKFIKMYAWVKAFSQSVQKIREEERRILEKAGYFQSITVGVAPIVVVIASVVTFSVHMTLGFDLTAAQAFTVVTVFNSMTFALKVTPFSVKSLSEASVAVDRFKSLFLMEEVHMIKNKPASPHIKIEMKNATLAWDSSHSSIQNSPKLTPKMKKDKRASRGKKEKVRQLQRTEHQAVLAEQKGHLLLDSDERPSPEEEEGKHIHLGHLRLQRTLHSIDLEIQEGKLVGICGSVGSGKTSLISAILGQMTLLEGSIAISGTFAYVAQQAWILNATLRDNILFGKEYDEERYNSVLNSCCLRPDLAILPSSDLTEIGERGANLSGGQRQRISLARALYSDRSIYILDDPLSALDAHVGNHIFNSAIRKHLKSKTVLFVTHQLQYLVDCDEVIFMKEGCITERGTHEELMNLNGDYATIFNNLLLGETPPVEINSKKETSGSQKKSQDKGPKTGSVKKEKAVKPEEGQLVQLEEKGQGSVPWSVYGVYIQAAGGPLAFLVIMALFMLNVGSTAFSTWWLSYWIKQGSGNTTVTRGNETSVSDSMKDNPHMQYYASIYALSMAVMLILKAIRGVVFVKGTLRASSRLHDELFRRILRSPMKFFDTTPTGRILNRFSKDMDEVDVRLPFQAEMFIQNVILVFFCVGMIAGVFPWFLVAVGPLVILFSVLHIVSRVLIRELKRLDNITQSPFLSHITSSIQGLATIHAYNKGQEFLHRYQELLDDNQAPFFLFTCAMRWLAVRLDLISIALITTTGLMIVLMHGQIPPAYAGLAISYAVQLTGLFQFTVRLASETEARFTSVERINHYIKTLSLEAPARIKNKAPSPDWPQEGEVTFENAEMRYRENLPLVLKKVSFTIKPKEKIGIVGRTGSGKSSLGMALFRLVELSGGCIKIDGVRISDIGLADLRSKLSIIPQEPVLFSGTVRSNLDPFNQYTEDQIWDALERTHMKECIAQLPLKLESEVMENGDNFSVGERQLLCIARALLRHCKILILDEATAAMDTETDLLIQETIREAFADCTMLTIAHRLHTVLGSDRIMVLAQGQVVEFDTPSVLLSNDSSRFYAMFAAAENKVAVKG", "parameters": "host or cells: polarized Madin-Darby canine kidney II (MDCK II) cells, transfected", "conditions": "polarized MDCK II cells overexpressing human MRP5; Wijnholds et al., 2000"}, "MRP5 [2]": {"molecular_target": "T1, MRP5", "parameters": "host or cells: V79 hamster lung fibroblasts, stably expressing", "conditions": "MRP5 stably expressed in V79 hamster lung fibroblasts; Jedlitschsky et al., 2000"}, "MRP5 [3]": {"molecular_target": "T1, MRP5", "parameters": "host or cells: polarized Madin-Darby canine kidney II (MDCK II) cells, transfected", "conditions": "MDCK II cells transfected with human MRP5; Wijnholds et al., 2000"}}, "data": [{"compound": "Sc1ncnc2nc[nH]c12", "note": "[6-mercaptopurine]", "values": [{"measurement": "resistance of MRP5-overexpressing cells to the drug", "setting": "MRP5 [1]", "result": "resistant"}]}, {"compound": "CCCc1nn(C)c2c(=O)[nH]c(-c3cc(S(=O)(=O)N4CCN(C)CC4)ccc3OCC)nc12", "note": "[Sildenafil]", "values": [{"measurement": "inhibition of MRP5-mediated transport of cyclic nucleotides such as cGMP", "setting": "MRP5 [2]", "result": "inhibited"}]}, {"compound": "COc1cc2c(cc1OC)-c1c/c(=N\\c3c(C)cc(C)cc3C)n(C)c(=O)n1CC2", "note": "[Trequinsin]", "values": [{"measurement": "inhibition of MRP5-mediated transport of cyclic nucleotides such as cGMP", "setting": "MRP5 [2]", "result": "inhibited"}]}, {"compound": "CCCOc1ccccc1-c1nc2nn[nH]c2c(=O)[nH]1", "note": "[Zaprinast]", "values": [{"measurement": "inhibition of MRP5-mediated transport of cyclic nucleotides such as cGMP", "setting": "MRP5 [2]", "result": "inhibited"}]}, {"compound": "Nc1ncnc2c1ncn2CCOCP(=O)(O)O", "note": "[PMEA, 9-(2-phosphonylmethoxyethyl)-adenine]", "values": [{"measurement": "transport of the drug by MRP5-transfected cells", "setting": "MRP5 [3]", "result": "transport"}]}, {"compound": "Nc1nc2nc[nH]c2c(=S)[nH]1", "note": "[thioguanine]", "values": [{"measurement": "resistance of MRP5-overexpressing cells to the drug", "setting": "MRP5 [1]", "result": "resistant"}]}]}
